Measured values reported in US10513538B2, “Dipeptidyl peptidase-IV (DPPIV), inhibitory peptide compound, composition containing the same, and production method for the same” (MARUHA NICHIRO CORPORATION, priority 2013, dated 2019).
Residues, ends and D or L forms follow the SMILES beside them.

Target: T1, DPPIV (Human, recombinant) (Homo sapiens, UniProt P27487)
T1 construct: purchased Biomol (DPPIV Drug Discovery Assay Kit, Enzo Life Sciences, Inc.)
Assay: DPPIV inhibitory activity measurement with partly modified DPPIV Drug Discovery Assay Kit (AMC substrate)
Format: biochemical
Conditions: for Activity Contribution Ratio (%): contribution of the peptide to the DPPIV inhibitory activity of the salmon milt peptide composition, from content, peptide IC50 and composition IC50; for IC50: synthesized peptide, serially diluted
Experimental: Each of the DPPIV inhibitory peptide compounds obtained in Example 1 was measured for the DPPIV inhibitory activity. The measurement was performed by using a partly modified DPPIV Drug Discovery Assay Kit (manufactured by Enzo Life Sciences, Inc.). As a substrate of a DPPIV enzyme, an AMC substrate (H-Gly-Pro-amino-4-methylcoumarin, BML-P189-9090; manufactured by Biomol) was used, as an enzyme, DPPIV (Human, recombinant; manufactured by Biomol) was used, and as a control inhibitor, Diprotin A (manufactured by Peptide Institute Inc.) was used. […] To the resultant solution, 50 μL of an AMC substrate solution (0.01 mM) pre-incubated at 37° C. was added, and a fluorescence intensity was measured at an excitation wavelength of 340 nm and a measurement wavelength of 460 nm every 5 minutes for 30 minutes by using a microplate reader (GENio Pro, manufactured by TECAN). The activity in the case without sample was set as 100%, and the relative activity of each sample was calculated. The measurement was repeatedly performed three times for each sample to obtain an average.
Each of the peptide compositions thus obtained was dissolved in distilled water in a concentration of 3 mg/mL, the resultant was subjected to a 0.45 μm membrane filter treatment, and the DPPIV inhibitory activity test was performed in the same manner as in Example 2.
Each peptide identified by the LC-MS analysis of Example 6 was synthesized and dissolved in distilled water to find the DPPIV inhibitory activity in the same manner as in Example 2.

T1 sequence (P27487 whole entry): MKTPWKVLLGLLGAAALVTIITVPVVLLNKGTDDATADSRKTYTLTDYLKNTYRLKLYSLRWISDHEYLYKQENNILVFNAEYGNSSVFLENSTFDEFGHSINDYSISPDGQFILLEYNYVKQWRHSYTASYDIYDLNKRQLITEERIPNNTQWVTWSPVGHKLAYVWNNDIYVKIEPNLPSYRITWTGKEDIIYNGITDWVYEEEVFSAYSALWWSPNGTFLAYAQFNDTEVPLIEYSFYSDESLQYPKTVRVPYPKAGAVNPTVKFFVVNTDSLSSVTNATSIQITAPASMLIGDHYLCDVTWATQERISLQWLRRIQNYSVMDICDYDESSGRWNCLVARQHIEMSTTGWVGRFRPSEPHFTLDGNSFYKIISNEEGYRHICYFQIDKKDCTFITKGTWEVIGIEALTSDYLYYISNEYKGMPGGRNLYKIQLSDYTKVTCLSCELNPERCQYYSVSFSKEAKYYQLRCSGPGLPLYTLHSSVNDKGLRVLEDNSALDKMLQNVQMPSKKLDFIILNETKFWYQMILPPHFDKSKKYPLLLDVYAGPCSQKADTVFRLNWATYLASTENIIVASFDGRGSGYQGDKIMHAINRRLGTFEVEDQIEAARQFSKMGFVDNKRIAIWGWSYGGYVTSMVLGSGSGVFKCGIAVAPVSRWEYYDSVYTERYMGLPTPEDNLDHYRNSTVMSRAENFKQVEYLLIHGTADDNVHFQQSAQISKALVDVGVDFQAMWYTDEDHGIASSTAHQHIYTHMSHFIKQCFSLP

SMILES	Activity Contribution Ratio (%)	IC50
CC(C)[C@H](NC(=O)[C@@H]1CCCN1C(=O)[C@@H](N)Cc1ccccc1)C(=O)NCC(=O)O [FPVG, Phe-Pro-Val-Gly] (H-FPVG-OH; N-terminus and C-terminus assumed)	0.4%	40 µM
CC[C@H](C)[C@H](N)C(=O)N1CCC[C@H]1C(=O)O [IP, Ile-Pro] (H-Ile-Pro-OH; N-terminus and C-terminus assumed)	6.6%	66 µM
N[C@@H](Cc1ccccc1)C(=O)N1CCC[C@H]1C(=O)O [FP, Phe-Pro] (H-Phe-Pro-OH)	–	> 100 µM
CC(C)C[C@H](N)C(=O)N1CCC[C@H]1C(=O)O [LP, Leu -Pro] (H-Leu-Pro-OH)	–	> 100 µM
CC(C)C[C@H](NC(=O)[C@@H](NC(=O)[C@@H]1CCCN1C(=O)[C@@H](N)CC(C)C)C(C)C)C(=O)O [LPVL, Leu-Pro-Val-Leu] (H-LPVL-OH; N-terminus and C-terminus assumed)	0.2%	46 µM
